Bridge positions count the residues as written; N and C are the ends. Square brackets hold non-standard residues; d marks the D form. Peptide text beside a SMILES is read from it. * marks the point of attachment. Ileψ(thiazoline)Cys = CC[C@H](C)[C@H](N)C1=N[C@H](C(=O)*)CS1; dOrn = NCCC[C@@H](N)C(=O)O
What was measured:
PDI [1] = molecular target: T1, PDI (Homo sapiens, UniProt P07237); assay: Di-eosin-GSSG disulfide reductase assay; format: biochemical; details: for change of apparent KM in the di-eosin-GSSG assay of PDI reductase activity / change of apparent kcat in the di-eosin-GSSG assay of PDI reductase activity: FIG. 6d
T1 construct: FLAG; made in house; host or cells: Escherichia coli Origami B (DE3), pET-15b
Protocol: (§1) The probe di-eosin glutathione disulfide, di-eosin-GSSG, was prepared as previously described in Raturi, A., Vacratsis, P. O., Seslija, D., Lee, L. & Mutus, B., Biochem J 391, 351-357 (2005). Reductase activity of purified thiol isomerases and PDI domains was monitored in a 96-well fluorescence plate format. PDI, AGHA-PDI, ERpS, ERp57, ERp72 and PDI domains were assayed at 50 nM in the presence or absence of the indicated small molecules, peptides or cathepsin G. The assay included 100 mM potassium phosphate (pH 7.4) containing 2 mM EDTA, 5 μM DTT and 150 nM of the di-eosin GSSG probe. The increase in fluorescence was determined for 20 minutes by excitation at 520 nm and emission at 550 nm in a Synergy Biotek 4. The reduction of 150 nM di-eosin-GSSG by 5 μM DTT in the presence or absence of mentioned small molecules, peptides or proteins served as a negative control.
Michaelis Menten analysis was assayed using PDI at 20 nM and small molecules, peptides or cathepsin G at concentrations causing maximal augmentation under similar buffer conditions as described above. 8-point response curves were generated using a range of different di-eosin-GSSG concentrations (50-5000 nM). Enzyme kinetics analysis was performed using Graphpad Prism 5.0.

ERp57 [2] = molecular target: T2, ERp57 (Homo sapiens, UniProt P30101); assay: Di-eosin-GSSG disulfide reductase assay; format: biochemical
T2 construct: FLAG; made in house; host or cells: Escherichia coli Origami B (DE3), pET-15b
T2 sequence (P30101 25-505): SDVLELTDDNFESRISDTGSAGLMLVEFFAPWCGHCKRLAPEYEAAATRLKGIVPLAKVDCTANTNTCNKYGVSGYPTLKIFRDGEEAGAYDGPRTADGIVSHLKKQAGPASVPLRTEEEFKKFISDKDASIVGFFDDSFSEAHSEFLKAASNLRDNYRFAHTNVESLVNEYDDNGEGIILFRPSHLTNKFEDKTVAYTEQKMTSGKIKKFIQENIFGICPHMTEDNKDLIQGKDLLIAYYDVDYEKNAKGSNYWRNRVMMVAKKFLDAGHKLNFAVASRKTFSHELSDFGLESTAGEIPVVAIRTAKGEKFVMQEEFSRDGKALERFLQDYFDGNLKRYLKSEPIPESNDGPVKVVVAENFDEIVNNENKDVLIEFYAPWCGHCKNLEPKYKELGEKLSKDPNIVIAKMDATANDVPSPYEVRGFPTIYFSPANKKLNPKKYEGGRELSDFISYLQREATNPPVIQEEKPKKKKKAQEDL
Protocol: as §1

ERp72 = molecular target: T3, ERp72 (Homo sapiens, UniProt P13667); assay: Di-eosin-GSSG disulfide reductase assay; format: biochemical
T3 construct: recombinant His-tagged full-length ERp5, ERp72 and PDI domain fragments; His; made in house; host or cells: Escherichia coli Origami B (DE3), pET-15b
T3 sequence (P13667 21-645): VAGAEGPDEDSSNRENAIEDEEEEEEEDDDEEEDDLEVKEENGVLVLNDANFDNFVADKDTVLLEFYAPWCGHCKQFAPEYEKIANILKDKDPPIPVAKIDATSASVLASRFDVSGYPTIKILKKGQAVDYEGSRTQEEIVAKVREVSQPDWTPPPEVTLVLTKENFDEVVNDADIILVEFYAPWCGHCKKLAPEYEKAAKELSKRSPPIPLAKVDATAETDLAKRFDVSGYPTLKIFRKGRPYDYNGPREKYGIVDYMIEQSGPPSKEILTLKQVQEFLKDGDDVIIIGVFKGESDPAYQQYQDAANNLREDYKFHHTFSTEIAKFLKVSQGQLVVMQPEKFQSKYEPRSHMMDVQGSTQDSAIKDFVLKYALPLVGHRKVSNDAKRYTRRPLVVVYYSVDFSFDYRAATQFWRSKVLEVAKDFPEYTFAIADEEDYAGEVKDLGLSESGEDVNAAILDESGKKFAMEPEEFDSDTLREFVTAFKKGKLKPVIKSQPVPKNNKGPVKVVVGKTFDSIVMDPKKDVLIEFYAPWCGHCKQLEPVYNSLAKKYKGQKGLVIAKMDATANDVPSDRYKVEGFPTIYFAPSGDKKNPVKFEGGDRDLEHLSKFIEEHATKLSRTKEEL
Protocol: as §1

ERp5 [3] = molecular target: T4, ERp5 (Homo sapiens, UniProt Q15084); assay: Di-eosin-GSSG disulfide reductase assay; format: biochemical
T4 construct: recombinant His-tagged full-length ERp5, ERp72 and PDI domain fragments; His; made in house; host or cells: Escherichia coli Origami B (DE3), pET-15b
T4 sequence (Q15084 20-440): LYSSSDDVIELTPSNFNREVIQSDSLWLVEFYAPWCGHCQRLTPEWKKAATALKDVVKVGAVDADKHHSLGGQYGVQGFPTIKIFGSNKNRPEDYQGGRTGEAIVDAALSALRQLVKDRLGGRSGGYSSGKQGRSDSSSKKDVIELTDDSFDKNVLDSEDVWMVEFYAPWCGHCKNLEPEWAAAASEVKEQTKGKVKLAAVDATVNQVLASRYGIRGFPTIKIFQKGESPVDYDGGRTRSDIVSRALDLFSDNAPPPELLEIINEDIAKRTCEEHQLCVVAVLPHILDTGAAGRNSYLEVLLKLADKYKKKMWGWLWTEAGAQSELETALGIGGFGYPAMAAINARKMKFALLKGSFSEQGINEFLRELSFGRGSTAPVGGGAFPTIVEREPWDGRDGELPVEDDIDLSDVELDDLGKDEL
Protocol: as §1

PDI [4] = molecular target: T1, PDI; details: cited from earlier work
full-length PDI = molecular target: T5, full-length PDI (Homo sapiens, UniProt P07237); assay: Small-angle X-ray scattering (SAXS); details: PDI complexed with compound; full-length oxidized PDI 40.0 Å, FIG. 5d
T5 construct: FLAG; made in house; host or cells: Escherichia coli Origami B (DE3), pET-15b
Protocol: Further purification of full-length PDI was achieved by gel filtration. PDI (1.5, 3.0 and 4.5 mg/mL) was dialyzed against 20 mM Tris, 150 mM NaCl, 5% glycerol (pH: 8.0) containing 0.5 mM bepristat 1b or 2b or DMSO control at 4° C. overnight. Evaluation by SAXS was performed on the SIBYLS beamline in the Advanced Light Source using a high throughput data collection method.

thioredoxin [5] = molecular target: T6, thioredoxin (Homo sapiens, UniProt P10599); assay: Insulin reductase assay, thiol isomerase selectivity; format: biochemical; details: 10-fold IC50, FIG. 2
T6 sequence (P10599 1-105): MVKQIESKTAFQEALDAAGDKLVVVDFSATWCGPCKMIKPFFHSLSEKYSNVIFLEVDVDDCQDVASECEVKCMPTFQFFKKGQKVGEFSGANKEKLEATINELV
Protocol: (§2) The thiol isomerase-catalyzed reduction of insulin was assayed by measuring the increase in turbidity as detected at an optical density (OD) of 650 nm using a Spectramax M3 (Molecular Devices, Sunnyvale, Calif.). The validation assay consisted of 175 nM of PDI in a solution containing 100 mM potassium phosphate (pH 7.4) containing 0.2 mM bovine insulin, 2 mM EDTA, and 0.3 mM DTT (all purchased from Sigma Aldrich, St. Louis, Mo.), inhibitors were used at the concentrations indicated. The reaction was performed at 25° C. for one hour and thirty minutes. For assays of thiol isomerase selectivity, 11 nM PDI, ERp57 or Thioredoxin, or 33 nM ERpS were assayed in similar buffer conditions as described above and inhibitors were used at the indicated concentration. The reaction was performed at 37° C. for forty-five minutes. For assays of isolated domains studies, 400 nM protein was used, except for a, a′ and ab, in which 800 nM protein was used. The assay was performed in similar buffer conditions as described above. Bepristat 2a and N-(2,4-Dimethoxyphenyl)-N-(1-oxo-2-propyn-1-yl)-2-(2-thienyl)glycyl-glycine ethyl ester (PACMA-31) were used at a final concentration of 15 μM in these studies.

ERp57 [6] = molecular target: T2, ERp57; assay: as above; format: biochemical; details: FIG. 2
Protocol: as §2

ERp5 [7] = molecular target: T4, ERp5; assay: as above; format: biochemical; details: 10-fold IC50, FIG. 2
Protocol: as §2

thioredoxin [8] = molecular target: T6, thioredoxin; assay: Maleimide-polyethylene glycol-2-biotin (MPB) binding; details: 150 μM inhibitor, FIG. 2c, FIG. 8
Protocol: (§3) Maleimide-Polyethanol glycol-2-Biotin (MPB) binding experiments were performed in a reaction volume of 37.5 μL with 5 μM of thiol isomerase or bovine serum albumin (BSA) in Tris-buffered saline (TBS), in the presence and absence of 1 mM of N-ethylmaleimide (NEM) or bacitracin, and 150 μM of the mentioned other inhibitors. The reaction mixture was incubated at 37° C. for 1 hour. Subsequently, the reaction mixtures were incubated with 25 μM of MPB. The labeling was performed for 20 minutes at 25° C. A total of 12.5 μL of 4× Laemmli Sample Buffer with 5% β-mercaptoethanol was added to each of the samples, followed by heating at 95° C. for 10 minutes. From each sample, 10 μL was loaded on a 12% SDS-PAGE gel, followed by transfer on a nitrocellulose membrane. After blocking the membrane with TBS-T containing 5% BSA for one hour, the membrane was incubated with a 1:2000 dilution of Cy5-tagged Streptavidin for an hour in the dark. Detection of the immunoblots was performed using ImageQuant LAS 4000 and analysis was performed using ImageQuant TL software.

ERp57 [9] = molecular target: T2, ERp57; assay: as above; details: 150 μM inhibitor, FIG. 2c, FIG. 8
Protocol: as §3

ERp5 [10] = molecular target: T4, ERp5; assay: as above; details: 150 μM inhibitor, FIG. 2c, FIG. 8
Protocol: as §3

thrombus formation = details: literature; cited from earlier work

T1 sequence (P07237 18-508): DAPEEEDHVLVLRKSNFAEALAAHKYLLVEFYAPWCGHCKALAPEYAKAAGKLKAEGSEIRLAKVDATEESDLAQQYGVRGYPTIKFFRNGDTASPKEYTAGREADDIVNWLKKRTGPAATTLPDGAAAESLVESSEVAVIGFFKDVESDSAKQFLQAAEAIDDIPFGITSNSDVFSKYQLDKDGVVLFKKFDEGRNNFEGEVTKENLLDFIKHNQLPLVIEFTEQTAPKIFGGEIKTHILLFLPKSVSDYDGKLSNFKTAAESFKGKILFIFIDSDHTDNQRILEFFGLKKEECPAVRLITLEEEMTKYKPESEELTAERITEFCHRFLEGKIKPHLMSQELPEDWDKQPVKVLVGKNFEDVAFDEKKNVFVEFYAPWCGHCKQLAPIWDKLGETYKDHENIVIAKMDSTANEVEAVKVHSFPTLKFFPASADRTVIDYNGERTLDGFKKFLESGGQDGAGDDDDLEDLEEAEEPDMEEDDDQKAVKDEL
T5 sequence (P07237 18-508): as above

Compound | cleavage of di-eosin-GSSG probe by PDI (reductase activity at catalytic cysteines) (PDI [1]) | change of apparent KM in the di-eosin-GSSG assay of PDI reductase activity (PDI [1]) | change of apparent kcat in the di-eosin-GSSG assay of PDI reductase activity (PDI [1]) | cleavage of di-eosin-GSSG by ERp57 (catalytic activity) (ERp57 [2]) | cleavage of di-eosin-GSSG by ERp72 (catalytic activity) (ERp72) | cleavage of di-eosin-GSSG by ERp5 (catalytic activity) (ERp5 [3]) | other results
cathepsin G: a protein substrate of PDI | elicits enhanced reductase activity | decreased the apparent KM | None of them altered the apparent kcat | inhibited the catalytic activity of ERp5 and ERp57 to varying degrees | augmented the catalytic activity of ERp72 | inhibited the catalytic activity of ERp5 and ERp57 to varying degrees | –
C[C@H](N)C(=O)NCC(=O)N[C@H]1CSSC[C@@H](C(=O)O)NC(=O)[C@H](CO)NC(=O)[C@H]([C@@H](C)O)NC(=O)[C@H](Cc2ccccc2)NC(=O)[C@H]([C@@H](C)O)NC(=O)[C@H](CCCCN)NC(=O)[C@H](Cc2c[nH]c3ccccc23)NC(=O)[C@H](Cc2ccccc2)NC(=O)[C@H](Cc2ccccc2)NC(=O)[C@H](CC(N)=O)NC(=O)[C@H](CCCCN)NC1=O [somatostatin, reference compound] | – | decreased the apparent KM | – | – | – | – | –
mastoparan [reference compound] | enhanced the ability of PDI to cleave di-eosin-GSSG in a dose-dependent manner | decreased the apparent KM | None of them altered the apparent kcat | inhibited the catalytic activity of ERp5 and ERp57 to varying degrees | augmented the catalytic activity of ERp72 | inhibited the catalytic activity of ERp5 and ERp57 to varying degrees | PDI activity in RNase refolding assay (PDI [4]): inhibits PDI activity in an RNase refolding assay
CCOC(=O)c1c(CNCCN(CC)CC)n(-c2ccccc2)c2cc(Br)c(O)cc12 [bepristat 2b] | – | – | – | – | – | – | gyration radius (Rg) of PDI (full-length PDI): 35.9 Å
CC[C@H](C)[C@H](N)C1=N[C@H](C(=O)N[C@@H](CC(C)C)C(=O)N[C@H](CCC(=O)O)C(=O)N[C@H](C(=O)N[C@H]2CCCCNC(=O)[C@H](CC(N)=O)NC(=O)[C@@H](CC(=O)O)NC(=O)[C@H](Cc3cnc[nH]3)NC(=O)[C@@H](Cc3ccccc3)NC(=O)[C@H]([C@@H](C)CC)NC(=O)[C@@H](CCCN)NC2=O)[C@@H](C)CC)CS1 [bacitracin] ({Ileψ(thiazoline)Cys}-L[dE]IK[dOrn]I[dF]H[dD]N; lactam 4-C) | blocked PDI-mediated cleavage of di-eosin-GSSG | – | – | – | – | – | inhibition of reductase activity of thioredoxin (thioredoxin [5]): showed activity against all thiol isomerases tested; inhibition of reductase activity of ERp57 (ERp57 [6]): showed activity against all thiol isomerases tested; inhibition of reductase activity of ERp5 (ERp5 [7]): showed activity against all thiol isomerases tested; reaction of MPB with the catalytic cysteines of thioredoxin (thioredoxin [8]): interfered with the reaction of maleimide-polyethylene glycol-2-biotin (MPB); reaction of MPB with the catalytic cysteines of ERp57 (ERp57 [9]): interfered with the reaction of maleimide-polyethylene glycol-2-biotin (MPB); reaction of MPB with the catalytic cysteines of ERp5 (ERp5 [10]): interfered with the reaction of maleimide-polyethylene glycol-2-biotin (MPB); thrombus formation in vivo (thrombus formation): inhibits thrombus formation in vivo

From US20180370912A1, “COMPOUNDS AND METHODS FOR TREATING DISEASES MEDIATED BY PROTEIN DISULFIDE ISOMERASE” (Beth Israel Deaconess Medical Center, Inc., priority 2017, published 2018)
